Holding throughout (format): cell-based
The subject of assay [1] is IL-6. In words: Whole bovine blood assay, LPS-induced IL-6. To be noted: fresh whole bovine blood, LPS stimulant, top drug concentration 250 μM.
Assay [2] concerns BRD pathogens, M. haemolytica and P. multocida. As to the kind of experiment: MIC screening panel, BRD pathogens (CLSI broth micro-dilution). An excerpt:
Primary screening of the compounds of the invention included the evaluation of antibacterial activity of analogs through determination of microbial inhibition concentration (MIC) as per CLSI guidelines. The screening panel included the relevant BRD pathogens: 1) M. haemolytica (e.g., 12726, 46571 and 49023, all AHDRCC; and 33396 (ATCC)); and 2) P. multocida (e.g., 34135 and 46572 (both AHDRCC) and 43137 (ATCC)). In some instances, H. somni (A700025K) pathogens were also included in the screening panel. The AHDRCC strains originated from the Zoetis BRD/SRD surveillance program and refer to the Animal Health Development and Research Culture Collection. In addition, the screen assessed S. aureus (29213 ATCC) as a representative Gram-positive isolate, E.faecalis (19433 ATCC) as a commensal gram-positive gastrointestinal bacterium and E. coli (100, 3110 and 25922 (ATCC)) for the evaluation of efflux potential. The screening panel BRD pathogens were assessed in determining antibacterial activity of the Formula (1) compounds.
All relevant BRD pathogens were initially screened at a top concentration of 64 μg/mL of a Formula (1) compound in an eleven-point dilution series. […] If an Example was purified further, the MICs moved […] essentially two dilutions across all strains tested in the screening panel.
In-Vitro MIC Model Compounds were analyzed for antibacterial activity against a panel of animal health specific gram-positive and gram-negative clinical strains by diluting compounds in DMSO to an appropriate stock concentration to determine the Minimal Inhibitory Concentration (MIC) via a semi-automated broth micro-dilution method (CLSI reference method) with QC strains and anti-microbial agent(s). Specifically, bacteria were grown overnight on TSA w/5% sheep blood agar plates and diluted in saline buffer to a McFarland Standard 0.5, then further diluted in cation-ion adjusted Mueller Hinton Broth to a final concentration of approximately 5×10^5 CFU/mL. 100 μL of inoculated media was added to 96-well plate(s) with 3 μL of serially diluted compound in each row. Depending on strain (see CLSI reference method), bacteria were incubated 18-22 hours at 35-37° C. in ambient air, with 5% CO2 or anaerobically (up to 48 hours).

For assay [3], the system named is IL-1β. In words: Whole bovine blood assay, LPS-induced IL-1β (inhibition / overstimulation). The note with it: drug concentration giving overstimulation (OS) of LPS-induced IL-1β, top concentration 250 μM. In short, it runs like this: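 IL-1β was quantified by MSD U-Plex chemiluminescence in plasma and normalized to BCA total protein. Bovine blood was pretreated 4 h at 37 °C with compound dilutions before 18 h LPS challenge (1 μg/mL final). Rising IL-1β at high concentrations was recorded as overstimulation.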

Assay [4] deals with TNF-α. As to the kind of experiment: Whole bovine blood assay, LPS-induced TNF-α. The note with it: fresh whole bovine blood, LPS stimulant, top drug concentration 250 μM. In short, it runs like this:
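Fresh heparinized bovine whole blood was preincubated with compound 4 h at 37 °C, then stimulated with LPS (final 1 μg/mL) for 18 h at 37 °C. Plasma TNF-α was quantified by MSD U-Plex chemiluminescent immunoassay, normalized to total protein (BCA), and IC50 taken for LPS-induced TNF-α inhibition.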

[5] abbreviates: Table C, at least one BRD pathogenic strain, top concentration 64 μg/mL.
[6] abbreviates: Table B, at least one BRD pathogenic strain, top concentration 64 μg/mL, read-out: MIC flag (*) for BRD pathogenic strains.

Where two headings read alike, the source gives them in different places. Marks after values point to notes of the source that are not given here.

`CC(=O)O.CC[C@H]1OC(=O)[C@H](C)[C@@H](O[C@H]2C[C@@](C)(OC)[C@](O)(CN3CCCCC3)[C@H](C)O2)[C@H](C)[C@@H](O[C@@H]2O[C@H](C)C[C@H](N(C)S(=O)(=O)Nc3ccc(C(F)(F)F)cc3)[C@H]2O)[C@](C)(O)C[C@@H](C)CN(C)[C@H](C)[C@@H](O)[C@]1(C)O` [Example C-57, (2R,3S,4R,5R,8R,10R,11R,12S,13S,14R)-2-ethyl-3,4, 10-trihydroxy-13-[(2R,4R,5S,6S)-5-hydroxy-4-methoxy-4,6-dimethyl-5-(piperidin-1-ylmethyl)oxan-2-yl]oxy-11-[(2S,3R,4S,6R)-3-hydroxy-6-methyl-4-[methyl-[[4-(trifluoromethyl)phenyl]sulfamoyl]amino]oxan-2-yl]oxy-3,5,6,8, 10, 12, 14-heptamethyl-15-oxo-1-oxa-6-azacyclopentadecane, acetic acid]: the half-maximal inhibitory concentration (IC50) turned out to be 9 µM in assay [1] and 6 µM in assay [4]. Also, the “MIC flag (*) for BRD pathogenic strains” value in assay [2] (setting [5]) is recorded as “C-57* (MIC ≤64 μg/mL for at least one BRD pathogenic strain)”. Also, the minimal effective concentration in assay [3] turned out to be 16 µM.

`CC[C@H]1OC(=O)[C@H](C)[C@@H](OC2CC(C)(OC)C(O)(CN3CCCCC3)[C@@H](C)O2)[C@H](C)[C@@H](O[C@@H]2O[C@H](C)C[C@H](N(C)S(=O)(=O)c3ccc(Cl)cc3)[C@H]2O)[C@](C)(O)C[C@@H](C)CN(C)[C@H](C)[C@@H](O)[C@]1(C)O` (stereo partly drawn) [Example C-38, 4-chloro-N-((2S,3R,4S,6R)-2-(((2R,3S,4R,5R,8R,10R,11R,12S,13S,14R)-2-ethyl-3,4,10-trihydroxy-13-(((6R)-5-hydroxy-4-methoxy-4,6-dimethyl-5-(piperidin-1-ylmethyl)tetrahydro-2H-pyran-2-yl)oxy)-3,5,6,8, 10, 12, 14-heptamethyl-15-oxo-1-oxa-6-azacyclopentadecan-11-yl)oxy)-3-hydroxy-6-methyltetrahydro-2H-pyran-4-yl)-N-methylbenzenesulfonamide]: the 50% inhibitory concentration (IC50) in assay [1] (Bos taurus) was determined as 4 µM; in assay [4] (Bos taurus), 9 µM. The MIC in assay [2] (Table C, at least one BRD pathogenic strain, top concentration 64 μg/mL, read-out: MIC flag (*) for BRD pathogenic strains) was not above 64 µg/mL. The same compound showed a minimal effective concentration in assay [3] (Bos taurus, 18 h) of 28 µM.

For the compound `CC[C@H]1OC(=O)[C@H](C)[C@@H](O[C@H]2C[C@@](C)(OC)[C@](O)(CCl)[C@H](C)O2)[C@H](C)[C@@H](O[C@@H]2O[C@H](C)C[C@H](N(C)S(=O)(=O)c3ccc(Cl)cc3)[C@H]2O)[C@](C)(O)C[C@@H](C)CN[C@H](C)[C@@H](O)[C@]1(C)O` [Example A4-1, 4-chloro-N-((2S,3R,4S,6R)-2-(((2R,3S,4R,5R,8R,10R,11R,12S,13S,14R)-13-(((2R,4R,5S,6S)-5-(chloromethyl)-5-hydroxy-4-methoxy-4,6-dimethyltetrahydro-2H-pyran-2-yl)oxy)-2-ethyl-3,4,10-trihydroxy-3,5,8,10,12,14-hexamethyl-15-oxo-1-oxa-6-azacyclopentadecan-11-yl)oxy)-3-hydroxy-6-methyltetrahydro-2H-pyran-4-yl)-N-methylbenzenesulfonamide], the values for the IC50 in assay [1] (Bos taurus) and in assay [4] (Bos taurus) were 26 µM and 44 µM, respectively. The MIC in assay [2] (BRD pathogens M. haemolytica and P. multocida, read-out: antibacterial / non-antibacterial (MIC class)) is more than 64 µg/mL. Also, the minimal effective concentration in assay [3] (Bos taurus, 18 h) is 12 µM.

For the compound “(2R,3S,4R,5R,8R,10R,11R, 12S, 13S, 14R)-2-ethyl-11-[(2R,3S,4R,6S)-4-[(3-fluorophenyl) sulfamoyl-methylamino]-3-hydroxy-6-methyloxan-2-yl]oxy-3,4, 10-trihydroxy-13-[(2R,4R,5S,6S)-5-hydroxy-4-methoxy-4,6-dimethyl-5-(piperidin-1-ylmethyl)-oxan-2-yl]oxy-3,5,8,10, 12,14-hexamethyl-15-oxo-1-oxa-6-azacyclopentadecane [Example C-24]”, the IC50 turned out to be 25 µM in assay [1] and 16 µM in assay [4]. Besides, in assay [2] (setting [5]), the “MIC flag (*) for BRD pathogenic strains” value was “C-24* (MIC ≤64 μg/mL for at least one BRD pathogenic strain)”. For the same compound, in assay [3], the minimal effective concentration is on record as 3 µM.

As to `CC[C@H]1OC(=O)[C@H](C)[C@@H](O)[C@H](C)[C@@H](O[C@@H]2O[C@H](C)C[C@H](N(C)S(=O)(=O)c3scnc3C)[C@H]2Oc2ccc(F)cc2)[C@](C)(O)C[C@@H](C)CN[C@H](C)[C@@H](O)[C@]1(C)O` [Example A-26], the IC50 in assay [1] came to 49 µM; in assay [4], 130 µM. Besides, the “MIC flag (*) for BRD pathogenic strains” value in assay [2] (Table A, at least one BRD pathogenic strain, top concentration 64 μg/mL) is on record as “A-26* (MIC ≤64 μg/mL for at least one BRD pathogenic strain)”. The compound further came in with a minimal effective concentration in assay [3] of 16 µM.

Turning to `CCCNC[C@]1(O)[C@H](C)OC(O[C@H]2[C@H](C)[C@@H](O[C@@H]3O[C@H](C)C[C@H](N(C)S(=O)(=O)c4cc(Br)c(Br)s4)[C@H]3Oc3ccc(OC)cc3)[C@](C)(O)C[C@@H](C)CN[C@H](C)[C@@H](O)[C@](C)(O)[C@@H](CC)OC(=O)[C@@H]2C)C[C@@]1(C)OC` (stereo partly drawn) [Example B-105, 4,5-dibromo-N-[(2S,3R,4S,6R)-2-[[(2R,3S,4R,5R,8R,10R,11R, 12S, 13S, 14R)-2-ethyl-3,4, 10-trihydroxy-13-[(4R,5S,6S)-5-hydroxy-4-methoxy-4,6-dimethyl-5-(propylaminomethyl)oxan-2-yl]oxy-3,5,8, 10, 12,14-hexamethyl-15-oxo-1-oxa-6-azacyclopentadec-11-yl]oxy]-3-(4-methoxyphenoxy)-6-methyloxan-4-yl]-N-methylthiophene-2-sulfonamide], the half-inhibitory concentration (IC50) in assay [1] (Bos taurus) was determined as 7 µM; in assay [4] (Bos taurus) it was 12 µM. In assay [2] (setting [6]), the MIC is not above 64 µg/mL. For the same compound, the minimal effective concentration in assay [3] (Bos taurus, 18 h) came to 3 µM.

In the case of “(2R,3S,4R,5R,8R,10R,11R,12S,13S,14R)-2-ethyl-3,4,10-trihydroxy-13-[(2R,4R,5S,6S)-5-hydroxy-4-methoxy-4,6-dimethyl-5-[(3,3,3-trifluoropropylamino)methyl]oxan-2-yl]oxy-11-[(2S,3R,4S,6R)-3-hydroxy-6-methyl-4-[methyl-[[4-(trifluoromethyl)phenyl]sulfamoyl]amino]oxan-2-yl]oxy-3,5,8, 10, 12,14-hexamethyl-15-oxo-1-oxa-6-azacyclopentadecane [Example B-65]”, the results for the half-inhibitory concentration (IC50) in assay [1] and in assay [4] were 15 µM and 9 µM, respectively. Also, the “MIC flag (*) for BRD pathogenic strains” value in assay [2] (Table B, at least one BRD pathogenic strain, top concentration 64 μg/mL) is recorded as “B-65* (MIC ≤64 μg/mL for at least one BRD pathogenic strain)”. For the same compound, in assay [3], the minimal effective concentration was 6 µM.

With `CCCNC[C@]1(O)[C@H](C)O[C@@H](O[C@H]2[C@H](C)[C@@H](O[C@@H]3O[C@H](C)C[C@H](N(C)S(=O)(=O)c4cccnc4)[C@H]3O)[C@](C)(O)C[C@@H](C)CN[C@H](C)[C@@H](O)[C@](C)(O)[C@@H](CC)OC(=O)[C@@H]2C)C[C@@]1(C)OC` [Example B-12, N-((2S,3R,4S,6R)-2-(((2R,3S,4R,5R,8R,10R,11R,12S, 13S,14R)-2-ethyl-3,4,10-trihydroxy-13-(((2R,4R,5S,6S)-5-hydroxy-4-methoxy-4,6-dimethyl-5-((propylamino)methyl)tetrahydro-2H-pyran-2-yl)oxy)-3,5,8,10,12,14-hexamethyl-15-oxo-1-oxa-6-azacyclopentadecan-11-yl)oxy)-3-hydroxy-6-methyltetrahydro-2H-pyran-4-yl)-N-methylpyridine-3-sulfonamide], the MIC in assay [2] (setting [6]) was not above 64 µg/mL. Also, the minimal effective concentration in assay [3] (Bos taurus, 18 h) is more than 250 µM.

The values are drawn from patent US20250236616A1, “IMMUNOMODULATING AZALIDES” (Zoetis Services LLC, priority 2021, published 2025).
